{"source": "patent US7695731B2", "about": "(Cordis Corporation, priority 2004, dated 2010)", "key": {"cell viability": {"tested_on": "cell viability", "test": "Cell viability assay", "assay_type": "cell-based"}, "[1]": {"tested_on": "human coronary artery smooth muscle cells", "test": "Anti-proliferative activity in synchronized cultured cells stimulated with two percent fetal bovine serum", "settings": "synchronized cells treated with rapamycin"}, "[2]": {"tested_on": "human coronary artery smooth muscle cells", "test": "Anti-proliferative activity in non-synchronized cultured cells stimulated with two percent fetal bovine serum", "assay_type": "cell-based", "settings": "for effect of addition on the anti-proliferative rapamycin dose response curve: non-synchronized cells treated with rapamycin, two percent fetal bovine serum", "text": "The multiple curves represent various concentrations of mycophenolic acid ranging from zero to one thousand nanomolar concentrations.\nThe multiple curves represent various concentrations of cladribine ranging from zero to nine hundred nanomolar concentrations."}, "[3]": {"tested_on": "human coronary artery smooth muscle cell proliferation", "test": "In vitro cell culture study, coronary artery smooth muscle cell proliferation (FIG. 51)", "assay_type": "cell-based", "text": "FIG. 51 is a graph of the inhibition of coronary artery smooth muscle cells by trichostatin A in a cell culture study."}, "[4]": {"tested_on": "human smooth muscle cells", "test": "Cladribine Example, PDGF-stimulated proliferation of smooth muscle cells", "assay_type": "cell-based", "procedure": "(§1) To assess the ability of cladribine to prevent cell proliferation, human smooth muscle or endothelial cells (Clonetics, Walkersville, Md.) were seeded at a density of 2000 cells/cm^2 (approximately 3600 cells/well) into each well of 12-well plates and cultured with 1.5 ml of growth medium containing five percent fetal calf serum (FCS). After twenty-four hours, the growth medium was changed and fresh medium containing 10 ng/ml platelet-derived growth factor AB (PDGF AB; LIFE Technologies), as well as various concentrations of cladribine (0.001-10,000 nM) were added with triplicate wells. Medium was replaced with fresh cladribine-containing medium after three days. On day six, cells were detached by trypsinization to yield a cell suspension, lightly centrifuged to pellet and then counted manually using a Neubauer hemocytometer system. Cell viability was assessed by trypan blue exclusion."}, "human endothelial cells": {"tested_on": "human endothelial cells", "test": "Cladribine Example, PDGF-stimulated proliferation of endothelial cells", "assay_type": "cell-based", "settings": "EC, Cladribine 10.000 nM", "procedure": "as §1"}, "[5]": {"test": "In vivo release kinetics of cladribine from PVDF/HFP coating on Bx Velocity stents (FIG. 61)", "settings": "PVDF/HFP 85/15 basecoat 1800 μg (30 % cladribine), 300 μg topcoat, Yorkshire pig", "text": "FIG. 61 is a graphical representation of the in vivo release kinetics of cladribine from a polymeric coating on Bx Velocity® stents, available from Cordis Corporation, implanted in a Yorkshire pig. The basecoat comprises an 85/15 ratio of PVDF and HFP and cladribine for a total combined weight of one thousand eight hundred micrograms (cladribine comprising thirty percent of the total weight). The topcoat comprises an 85/15 ratio of PVDF/HFP and no cladribine. The total weight of the topcoat is three hundred micrograms."}, "[6]": {"test": "In vivo release kinetics from rapamycin/cladribine EVA/BMA basecoat, porcine pharmacokinetics studies (FIG. 62, 63)", "settings": "EVA/BMA basecoat with 200 μg BMA topcoat, Yorkshire pigs", "text": "(§2) The basecoat is applied to Bx Velocity® stents and implanted into Yorkshire pigs.\nas §2"}, "[7]": {"test": "In vivo release kinetics from rapamycin/mycophenolic acid EVA/BMA basecoat, porcine pharmacokinetics studies (FIG. 53, 54)", "settings": "EVA/BMA basecoat 600 μg with 180 μg each drug, no or 100/200 μg BMA topcoat"}}, "data": [{"molecule": "CC[C@@]1(O)C(=O)OCc2c1cc1n(c2=O)Cc2cc3c(CN(C)C)c(O)ccc3nc2-1", "note": "[topotecan]", "values": [{"measurement": "cytotoxicity in cell viability assay", "setting": "cell viability; concentrations up to one micromolar", "result": "non-cytotoxic"}, {"measurement": "effect of addition on the anti-proliferative rapamycin dose response curve", "setting": "[1]", "result": "potentiate the anti-proliferative activity of rapamycin"}]}, {"molecule": "COc1cc([C@@H]2c3cc4c(cc3[C@@H](O[C@@H]3O[C@@H]5CO[C@@H](C)O[C@H]5[C@H](O)[C@H]3O)[C@H]3COC(=O)[C@H]23)OCO4)cc(OC)c1O", "note": "[etoposide]", "values": [{"measurement": "effect of addition on the anti-proliferative rapamycin dose response curve", "setting": "[2]", "result": "potentiate the anti-proliferative activity of rapamycin"}, {"measurement": "cytotoxicity in cell viability assay", "setting": "cell viability; concentrations up to ten micromolar", "result": "non-cytotoxic"}, {"measurement": "effect of addition on the anti-proliferative rapamycin dose response curve", "setting": "[1]", "result": "increases the percent inhibition of rapamycin alone"}]}, {"molecule": "CC(/C=C/C(=O)NO)=C\\[C@@H](C)C(=O)c1ccc(N(C)C)cc1", "note": "[trichostatin A]", "values": [{"measurement": "inhibition of human coronary artery smooth muscle cell proliferation", "setting": "[3]", "result": "completely inhibit"}, {"measurement": "IC50", "setting": "[3]; read-out: anti-proliferative IC50", "result": "~6", "unit": "nM"}]}, {"molecule": "Nc1nc(Cl)nc2c1ncn2[C@H]1C[C@H](O)[C@@H](CO)O1", "note": "[Cladribine, 2-chlorodeoxyadenosine]", "values": [{"measurement": "% of PDGF-stimulated increase in cell count", "setting": "[4]; SMC, Cladribine 10.000 nM", "result": "−4", "unit": "%"}, {"measurement": "potency on smooth muscle cells relative to endothelial cells", "setting": "[4]; from IC50 values 23 and 40 nanomolar", "result": "approximately twice as potent"}, {"measurement": "% of PDGF-stimulated increase in cell count", "setting": "human endothelial cells", "result": 10, "unit": "%"}, {"measurement": "effect of addition on the anti-proliferative rapamycin dose response curve", "setting": "[2]", "result": "potentiate the anti-proliferative activity of rapamycin"}, {"measurement": "inhibition of human coronary artery smooth muscle cell proliferation", "setting": "[2]; non-synchronized cells, two percent fetal bovine serum (FIG. 58)", "result": "completely inhibits"}, {"measurement": "in vivo elution from stent coating over time", "setting": "[5]", "result": "after the first day, the elution of cladribine levels off significantly"}, {"measurement": "in vivo elution from stent coating compared with rapamycin", "setting": "[6]", "result": "elutes more rapidly than rapamycin"}]}, {"molecule": "COc1c(C)c2c(c(O)c1C/C=C(\\C)CCC(=O)O)C(=O)OC2", "note": "[mycophenolic acid]", "values": [{"measurement": "effect of addition on the anti-proliferative rapamycin dose response curve", "setting": "[2]", "result": "potentiates the anti-proliferative activity of rapamycin"}, {"measurement": "in vivo release from stent coating compared with rapamycin", "setting": "[7]", "result": "elutes more completely over a shorter duration than the rapamycin"}]}]}
